In US12441727B2, “Tricyclic compounds as inhibitors of KRAS” (Incyte Corporation, priority 2021, dated 2025):
Where two headings read alike, the source gives them in different places.

How the values were obtained:
[1] = molecular target: KRAS G12C (Homo sapiens, UniProt P01116, G12C); assay: GDP-GTP exchange assay (KRAS_G12C exchange assay); type: biochemical; conditions: bodipy-loaded KRAS G12C 2.5 nM, SOS1 150 nM, 2 hours pre-incubation with inhibitor; read-out: G12C_exchange
Procedure: The inhibitor potency of the exemplified compounds was determined in a fluorescence based guanine nucleotide exchange assay, which measures the exchange of bodipy-GDP (fluorescently labeled GDP) for GppNHp (Non-hydrolyzable GTP analog) to generate the active state of KRAS in the presence of SOS1 (guanine nucleotide exchange factor). Inhibitors were serially diluted in DMSO and a volume of 0.1 μL was transferred to the wells of a black low volume 384-well plate. 5 μL/well volume of bodipy-loaded KRAS G12C diluted to 5 nM in assay buffer (25 mM Hepes pH 7.5, 50 mM NaCl, 10 mM MgCl2 and 0.01% Brij-35) was added to the plate and pre-incubated with inhibitor for 2 hours at ambient temperature. Appropriate controls (enzyme with no inhibitor or with a G12C inhibitor (AMG-510)) were included on the plate. The exchange was initiated by the addition of a 5 μL/well volume containing 1 mM GppNHp and 300 nM SOS1 in assay buffer. The 10 μL/well reaction concentration of the bodipy-loaded KRAS G12C, GppNHp, and SOS1 were 2.5 nM, 500 uM, and 150 nM, respectively. The reaction plates were incubated at ambient temperature for 2 hours, a time estimated for complete GDP-GTP exchange in the absence of inhibitor. For the KRAS G12D and G12V mutants, similar guanine nucleotide exchange assays were used with 2.5 nM as final concentration for the bodipy loaded KRAS proteins and with 4 hours and 3 hours incubation after adding GppNHp-SOS1 mixture for G12D and G12V respectively. A cyclic peptide described to selectively bind G12D mutant (Sakamoto et al., BBRC 484.3 (2017), 605-611) or internal compounds with confirmed binding were used as positive controls in the assay plates. Fluorescence intensities were measured on a PheraStar plate reader instrument (BMG Labtech) with excitation at 485 nm and emission at 520 nm.
Either GraphPad prism or Genedata Screener SmartFit was used to analyze the data. The IC50 values were derived by fitting the data to a four parameter logistic equation producing a sigmoidal dose-response curve with a variable Hill coefficient.

[2] = test system: KRAS_G12C pERK in MIA PaCa-2 cells; assay: Whole Blood pERK1/2 HTRF assay (KRAS_G12C WB pERK assay); type: cell-based, human; conditions: compound in whole blood, 4 hours, read-out: G12C_WB_pERK
Procedure: MIA PaCa-2 cells (KRAS G12C; ATCC® CRL-1420), HPAF-II (KRAS G12D; ATCC® CRL-1997) and YAPC (KRAS G12V; DSMZ ACC382) are maintained in RPMI 1640 with 10% FBS (Gibco/Life Technologies). For MIA PaCa-2 assay, cells are seeded into 96 well tissue culture plates (Corning #3596) at 25000 cells per well in 100 uL media and cultured for 2 days at 37° C., 5% CO2 before the assay. For HPAF-II and YAPC assay, cells are seeded in 96 well tissue culture plates at 50000 cells per well in 100 uL media and cultured for 1 day before the assay. Whole Blood are added to the 1 uL dots of compounds (prepared in DMSO) in 96 well plates and mixed gently by pipetting up and down so that the concentration of the compound in blood is 1× of desired concentration, in 0.5% DMSO. The media is aspirated from the cells and 50 uL per well of whole blood with test compound is added and incubated for 4 hours for MIA PaCa and YAPC assay; or 2 hours for HPAF-II assay, respectively at 37° C., 5% CO2. After dumping the blood, the plates are gently washed twice by adding PBS to the side of the wells and dumping the PBS from the plate onto a paper towel, tapping the plate to drain well. Fifty ul/well of 1× lysis buffer #1 (Cisbio) with blocking reagent (Cisbio) and Benzonase nuclease (Sigma Cat #E1014-5KU, 1:10000 final concentration) is then added and incubated at room temperature for 30 minutes with shaking (250 rpm). Following lysis, 16 uL of lysate is transferred into 384-well Greiner small volume white plate using an Assist Plus (Integra Biosciences, NH). Four uL of 1:1 mixture of anti Phospho-ERK 1/2 d2 and anti Phospho-ERK 1/2 Cryptate (Cisbio) is added to the wells using the Assist Plus and incubated at room temperature overnight in the dark. Plates are read on the Pherastar plate reader at 665 nm and 620 nm wavelengths. Data are analyzed in Genedata Screener using SmartFit for IC50 values.

[3] = test system: KRAS_G12C pERK; assay: Cellular pERK HTRF assay (KRAS_G12C pERK assay); type: cell-based, human; conditions: KRAS G12C cells, 4 hours incubation with compound, read-out: G12C_pERK
Procedure: MIA PaCa-2 (KRAS G12C; ATCC® CRL-1420), NCI-H358 (KRAS G12C; ATCC® CRL-5807), A427 (KRAS G12D; ATCC® HTB53), HPAFII (KRAS G12D; ATCC® CRL-1997), YAPC (KRAS G12V; DSMZ ACC382), SW480 (KRAS G12V; ATCC® CRL-228) and NCI-H838 (KRAS WT; ATCC® CRL-5844) cells are purchased from ATCC and maintained in RPMI 1640 media supplemented with 10% FBS (Gibco/Life Technologies). The cells are plated at 5000 cells per well (8 uL) into Greiner 384-well low volume, flat-bottom, and tissue culture treated white plates and incubated overnight at […], 5% CO2. The next morning, test compound stock solutions are diluted in media at 3× the final concentration and 4 uL are added to the cells, with a final concentration of 0.1% of DMSO. The cells are incubated with the test compounds for 4 hours (G12C and G12V) or 2 hrs (G12D) at 37° C., 5% CO2. Four uL of 4× lysis buffer with blocking reagent (Cisbio) are added to each well and plates are rotated gently (300 rpm) for 30 minutes at room temperature. Four uL per well of Cisbio anti Phospho-ERK 1/2 d2 is mixed with anti Phospho-ERK 1/2 Cryptate (1:1), and added to each well, incubated overnight in the dark at room temperature. Plates are read on the Pherastar plate reader at 665 nm and 620 nm wavelengths. Data are analyzed in Genedata Screener using SmartFit for IC50 values.

Sequence of KRAS G12C (P01116 1-188 isoform P01116-2 G12C): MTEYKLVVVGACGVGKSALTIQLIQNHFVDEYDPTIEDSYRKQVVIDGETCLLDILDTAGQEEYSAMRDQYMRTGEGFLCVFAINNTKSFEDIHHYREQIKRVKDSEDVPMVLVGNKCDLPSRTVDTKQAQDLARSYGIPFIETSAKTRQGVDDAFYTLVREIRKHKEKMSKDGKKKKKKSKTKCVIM

Structure (SMILES)	IC50 [1]	IC50 ([2]; Homo sapiens)	IC50 ([3]; Homo sapiens, 4 h)	IC50 [3]	IC50 [2]
COC/C=C/C(=O)N1CC[C@H](n2nnc3c(O[C@@H](C)[C@@H]4CCCN4C)nc4c(F)c(-c5nn(C)c6ccccc56)c(C)cc4c32)C[C@H]1CC#N [Example 9, 2-((2S,4S)-4-(6-fluoro-8-methyl-7-(1-methyl-1H-indazol-3-yl)-4-((S)-1-((S)-1-methylpyrrolidin-2-yl)ethoxy)-1H-[1,2,3]triazolo[4,5-c]quinolin-1-yl)-1-((E)-4-methoxybut-2-enoyl)piperidin-2-yl)acetonitrile]	≤ 50 nM	≤ 50 nM	≤ 50 nM	–	–
C=CC(=O)N1CCC(n2nnc3c(O[C@@H](C)[C@@H]4CCCN4C)nc4c(F)c(-c5ccc(F)c6cccnc56)c(C(F)(F)F)cc4c32)CC1 (single isomer, unassigned) [Example 5b]	≤ 50 nM	–	–	50 to 100 nM	–
COc1c(Cl)cccc1-c1c(C(F)(F)F)cc2c(nc(N3CC(C)(N(C)C)C3)c3nnn([C@H]4CCN(C(=O)/C=C/CF)[C@H](CC#N)C4)c32)c1F (single isomer, unassigned) [Example 3b]	≤ 50 nM	–	–	≤ 50 nM	–
COC/C=C/C(=O)N1CC[C@H](n2nnc3c(N4CC(C)(N(C)C)C4)nc4c(F)c(-c5cccc(C)c5C)c(C)cc4c32)C[C@H]1CC#N [Example 6, 2-((2S,4S)-4-(4-(3-(dimethylamino)-3-methylazetidin-1-yl)-7-(2,3-dimethylphenyl)-6-fluoro-8-methyl-1H-[1,2,3]triazolo[4,5-c]quinolin-1-yl)-1-((E)-4-methoxybut-2-enoyl)piperidin-2-yl)acetonitrile]	≤ 50 nM	100 to 1000 nM	≤ 50 nM	–	–
COc1c(C)cccc1-c1c(C(F)(F)F)cc2c(nc(N3CC(C)(N(C)C)C3)c3nnn([C@H]4CCN(C(=O)/C=C/CF)[C@H](CC#N)C4)c32)c1F (single isomer, unassigned) [Example 2b]	≤ 50 nM	–	–	50 to 100 nM	–
C=C(F)C(=O)N1CC[C@H](n2nnc3c(O[C@@H](C)[C@@H]4CCCN4C)nc4c(F)c(-c5ncc(F)c6ccccc56)c(C)cc4c32)C[C@H]1CC#N [Example 22, 2-((2S,4S)-4-(6-fluoro-7-(4-fluoroisoquinolin-1-yl)-8-methyl-4-((S)-1-((S)-1-methylpyrrolidin-2-yl)ethoxy)-1H-[1,2,3]triazolo[4,5-c]quinolin-1-yl)-1-(2-fluoroacryloyl)piperidin-2-yl)acetonitrile]	≤ 50 nM	≤ 50 nM	≤ 50 nM	–	–
CN(C)C1(C)CN(c2nc3c(F)c(-c4ccc(F)c5cccnc45)c(C(F)(F)F)cc3c3c2nnn3[C@H]2CCN(C(=O)/C=C/CF)[C@H](CC#N)C2)C1 (single isomer, unassigned) [Example 1b]	≤ 50 nM	–	–	50 to 100 nM	–
COC/C=C/C(=O)N1CC[C@H](n2nnc3c(O[C@@H](C)[C@@H]4CCCN4C)nc4c(F)c(-c5c(C)ncc6ccccc56)c(C)cc4c32)C[C@H]1CC#N (single isomer, unassigned) [Example 24a]	≤ 50 nM	–	50 to 100 nM	–	–
C=C(F)C(=O)N1CC[C@H](n2nnc3c(O[C@@H](C)[C@@H]4CCCN4C)nc4c(F)c(-c5c(C)ncc6ccccc56)c(C)cc4c32)C[C@H]1CC#N (single isomer, unassigned) [Example 23b]	≤ 50 nM	≤ 50 nM	≤ 50 nM	–	–
C=C(F)C(=O)N1CC[C@H](n2nnc3c(N4CC(C)(N(C)C)C4)nc4c(F)c(-c5cccc6cccc(C#N)c56)c(C)cc4c32)C[C@H]1CC#N (single isomer, unassigned) [Example 17a]	≤ 50 nM	50 to 100 nM	≤ 50 nM	–	–

Results, then the compound that gave them:

IC50 [1]	IC50 ([2]; Homo sapiens)	IC50 ([3]; Homo sapiens, 4 h)	IC50 [3]	IC50 [2]	Structure (SMILES)
≤ 50 nM	50 to 100 nM	≤ 50 nM	–	–	C=C(F)C(=O)N1CC[C@H](n2nnc3c(O[C@@H](C)[C@@H]4CCCN4C)nc4c(F)c(-c5c(F)ccc6ccc(C)nc56)c(C)cc4c32)C[C@H]1CC#N (single isomer, unassigned) [Example 25a]
≤ 50 nM	50 to 100 nM	≤ 50 nM	–	–	C=C(F)C(=O)N1CC[C@H](n2nnc3c(O[C@@H](C)[C@@H]4CCCN4C)nc4c(F)c(-c5c(F)ccc6cccnc56)c(C)cc4c32)C[C@H]1CC#N (single isomer, unassigned) [Example 27a]
≤ 50 nM	50 to 100 nM	≤ 50 nM	–	–	COC/C=C/C(=O)N1CC[C@H](n2nnc3c(O[C@@H](C)[C@@H]4CCCN4C)nc4c(F)c(-c5cnc(C)c6ccccc56)c(C)cc4c32)C[C@H]1CC#N (single isomer, unassigned) [Example 26a]
≤ 50 nM	≤ 50 nM	–	≤ 50 nM	–	COC/C=C/C(=O)N1CC[C@H](n2nnc3c(O[C@@H](C)[C@@H]4CCCN4C)nc4c(F)c(-c5c(C)ncc6ccccc56)c(C)cc4c32)C[C@H]1CC#N (single isomer, unassigned) [Example 24b]
≤ 50 nM	–	–	≤ 50 nM	50 to 100 nM	C=C(F)C(=O)N1CC[C@H](n2nnc3c(O[C@@H](C)[C@@H]4CCCN4C)nc4c(F)c(-c5c(F)ccc6cccnc56)c(C)cc4c32)C[C@H]1CC#N (single isomer, unassigned) [Example 27b]
